Here are results for two compounds from patent publication US20050032896A1, “Use of synthetic retinoic acid in form of 13-cis vitamin A for treatment of autism” (priority 2002, published 2005).

Common to all, as to type: in vivo, human
One data set concerns synaptic activity. The experiment in a line: Auditory evoked potential (AEP) responses before and after the dosage regimen. Particulars: after the dosage regimen versus before. Here is the method:
(§1) As an example, the improvements in relief or elimination of symptoms of autistic disorder after about 17 days of administering synthetic retinoic acid in the form of 13-cis vitamin A at dosage levels of from about 20 mg every other day to about 40 mg per day, auditory evoked potential (AEP) responses were given before administering the mentioned dosage and after administration of the dosage regimen.

Another data set concerns symptoms of autism. The experiment in a line: Oral treatment of an autistic subject, observed symptoms of autism.
Source text: The patient in the present example is a child, weighs approximately 60 pounds, and is characterized by the symptoms of deficiencies in short term memory, inadequate independent problem solving skills for their age, deficient spontaneous verbalizations, utterances of diminished length, infrequent request to interact with family members and friends, insufficient capacity to master the complexity of play schemes for their age, and a tendency toward abnormal emotional responses (i.e. laughing when someone is seriously hurt in a movie, not offering assistance to family members when hurt, and not laughing along with siblings while watching cartoons, but instead tensing and becoming overly excited).
The subject weighing approximately 60 pounds was given a dosage of synthetic retinoic acid in the form of 13-cis vitamin A in amounts from about […] to about 40 mg per 60 lbs of body weight per day. […] Improvements in lessening the symptoms associated with the autism disorder were noted as early as 10 days into the treatment, with solid gains noted by the 17th day into the treatment.
as §1

The nature of data set [1]: Blood analysis for retinoic acid content after oral vitamin A palmitate, first vitamin A study 1996. The conditions noted are these: autistic subject; vitamin A palmitate day 1=0, day 2=25,000 IU, day 3 through day 7=50,000 IU. The procedure: In the first vitamin A study in 1996, a sample of the autistic subjects blood was analyzed for retinoic acid content on the belief that there was a deficiency of retinoic acid. At this time, the subject had been receiving up to about 50,000 IU dose of vitamin A palmitate, wherein day 1=0, day 2=25,000 IU and day 3 through day 7=50,000 IU. The RDA is 5,000 IU per day.

Data set [2] is described as follows: Blood analysis for retinoic acid content after oral vitamin A palmitate, second study 1999 to 2000. The conditions noted are these: autistic subject; oral 20 mg every other day for two weeks, then 40 mg per day up to 5 months. Here is the method: In a second study conducted in a period from 1999 to 2000, the autistic subject was orally given retinoic acid in the form of […] in an amount of 20 mg every other day for two weeks, and thereafter the dosage was increased to 40 mg per day for a period up to 5 months. […] Although there are numerous cis-trans isomers of vitamin A, there is no possibility for cis-trans isomerism about the cyclohexane double bond because the ring contains only 6 atoms. There are four carbon-carbon double bonds in the chain of atoms attached to the substituted cyclohexane ring, and each has the potential for cis-trans isomerism. Therefore, there are 2×2×2×2, or 16, possible cis-trans isomers for vitamin A. [drawing 1]

[3] abbreviates: 20 mg every other day for two weeks, then 40 mg per day, oral.
[4] abbreviates: autistic subject, oral dosage regimen.

`CC1=C(/C=C/C(C)=C/C=C/C(C)=C\C(=O)O)C(C)(C)CCC1`: the “synaptic activity recorded by audio evoked potentials (AEP)” value in the data set with synaptic activity is reported as “increase in synaptic activity”. Moreover, in the data set on symptoms of autism (setting [3]), the “time into treatment at which improvements in symptoms were first noted” value stood at 10 days and the “time into treatment at which solid gains were noted” value is no more than 17 days. Besides, the “language and cognitive functions” value in the data set with symptoms of autism (after the dosage regimen for between about 10 and 17 days) is “noted improvement in language and cognitive functions”. For the same compound, in the data set on symptoms of autism (setting [4]), the “capability to master the complexity of play schemes” value is recorded as “increase in the capability to master the complexity of play schemes”; the “frequency of request to interact with family members and friends” value was “increase in the frequency of request to interact with family members and friends”; the “independent problem solving skills” value is given as “improvement in independent problem solving skills”; the length of utterances result was “increase in the length of utterances”. In addition, in the data set on symptoms of autism (setting [4]), the short term memory result is reported as “Improvement in short term memory”, the spontaneous verbalizations result was “increase in spontaneous verbalizations” and the “tendencies towards more normalized emotional responses” value is listed as “improvement in tendencies towards more normalized emotional responses”. Also, the “optimal dose for lessening the symptoms of autism” value in the data set on symptoms of autism (for two weeks, thereafter increased to 40 mg per day, person, approx. 60 pounds, oral) was “about 20 mg per 60 lbs of body weight every other day”.

On to `CCCCCCCCCCCCCCCC(=O)OC/C=C(C)/C=C/C=C(C)/C=C/C1=C(C)CCCC1(C)C` [vitamin A palmitate], for which the “retinoic acid content in blood” value in data set [1] is given as “no retinoic acid could be detected”. Also, the “retinoic acid content in blood samples” value in data set [2] is recorded as “contained no retinoic acid”.
